Values joined by “and” are separate entries in the source; they are usually repeats but may differ in a detail not shown here. Equal values may be shown once. Toxic doses and inconclusive results are not listed.
Test system: P388 leukemia ip, CD2F1 mice, survival T/C
Test: NCI In Vivo Anticancer Drug Screen. Data for tumor model P388 Leukemia (intraperitoneal) in CD2F1 (CDF1) mice
Conditions: endpoint: median survival time, higher = longer survival
How it was run: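 Mice carrying the transplanted tumor received test compound or vehicle. Survival was recorded in each group, and the value is the treated-group measurement divided by that of the vehicle-treated control group.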

O=C1c2ccccc2C(=O)c2c(NCCNCCO)ccc(O)c21 was tested, and the T/C (dose: 1.25 mg/kg/injection, schedule: Q01DX009 (ip), vehicle: acid diluted with saline) was 118 % of control and 122 % of control, the T/C (dose: 2.5 mg/kg/injection, schedule: Q01DX009 (ip), vehicle: acid diluted with saline) was 216 % of control and the T/C (dose: 3.12 mg/kg/injection, schedule: Q04DX002 (ip), vehicle: water) was 110 % of control. For the same compound, the T/C (dose: 5.0 mg/kg/injection, schedule: Q01DX005 (ip), vehicle: saline) was 258 % of control, the T/C (dose: 5.0 mg/kg/injection, schedule: Q01DX005 (iv), vehicle: saline) was 119 % of control and the T/C (dose: 5.0 mg/kg/injection, schedule: Q01DX009 (ip), vehicle: acid diluted with saline) was 274 % of control. For the same compound, the T/C (dose: 5.0 mg/kg/injection, schedule: Q01DX009 (ip), vehicle: distilled water + Tween-80) was 177 % of control, the T/C (dose: 6.25 mg/kg/injection, schedule: Q04DX002 (ip), vehicle: other) was 120 % of control and the T/C (dose: 10.0 mg/kg/injection, schedule: Q01DX001 (iv), vehicle: saline) was 108 % of control. The T/C (dose: 10.0 mg/kg/injection, schedule: Q01DX005 (ip), vehicle: saline) was 276 % of control, the T/C (dose: 10.0 mg/kg/injection, schedule: Q01DX005 (iv), vehicle: saline) was 151 % of control and the T/C (dose: 10.0 mg/kg/injection, schedule: Q01DX009 (ip), vehicle: acid diluted with saline) was 436 % of control. The T/C (dose: 10.0 mg/kg/injection, schedule: Q01DX009 (ip), vehicle: distilled water + Tween-80) was 247 % of control, the T/C (dose: 10.0 mg/kg/injection, schedule: Q04DX003 (ip), vehicle: saline) was 185 % of control and the T/C (dose: 10.0 mg/kg/injection, schedule: Q04DX003 (iv), vehicle: saline) was 116 % of control. The T/C (dose: 19.4 mg/kg/injection, schedule: Q04DX003 (ip), vehicle: saline) was 259 % of control, the T/C (dose: 20.0 mg/kg/injection, schedule: Q01DX001 (ip), vehicle: saline) was 190 % of control and the T/C (dose: 20.0 mg/kg/injection, schedule: Q01DX001 (iv), vehicle: saline) was 116 % of control. For the same compound, the T/C (dose: 20.0 mg/kg/injection, schedule: Q01DX005 (ip), vehicle: saline) was 312 % of control, the T/C (dose: 20.0 mg/kg/injection, schedule: Q01DX005 (iv), vehicle: saline) was 177 % of control and the T/C (dose: 20.0 mg/kg/injection, schedule: Q01DX009 (ip), vehicle: acid diluted with saline) was 158 % of control. The T/C (dose: 20.0 mg/kg/injection, schedule: Q01DX009 (ip), vehicle: distilled water + Tween-80) was 211 % of control, the T/C (dose: 20.0 mg/kg/injection, schedule: Q04DX003 (ip), vehicle: saline) was 214 % of control and the T/C (dose: 25.0 mg/kg/injection, schedule: Q04DX002 (ip), vehicle: other) was 116 % of control. For the same compound, the T/C (dose: 25.0 mg/kg/injection, schedule: Q04DX002 (ip), vehicle: water) was 198 % of control, the T/C (dose: 32.4 mg/kg/injection, schedule: Q04DX003 (ip), vehicle: saline) was 211 % of control and the T/C (dose: 40.0 mg/kg/injection, schedule: Q01DX001 (ip), vehicle: saline) was 205 % of control. The T/C (dose: 40.0 mg/kg/injection, schedule: Q01DX009 (ip), vehicle: acid diluted with saline) was 150 % of control and 163 % of control, the T/C (dose: 40.0 mg/kg/injection, schedule: Q04DX003 (ip), vehicle: saline) was 223 % of control and the T/C (dose: 50.0 mg/kg/injection, schedule: Q04DX002 (ip), vehicle: other) was 103 % of control. For the same compound, the T/C (dose: 50.0 mg/kg/injection, schedule: Q04DX002 (ip), vehicle: water) was 261 % of control, the T/C (dose: 80.0 mg/kg/injection, schedule: Q01DX001 (ip), vehicle: saline) was 178 % of control and the T/C (dose: 100.0 mg/kg/injection, schedule: Q04DX002 (ip), vehicle: water) was 157 % of control and 161 % of control. The T/C (dose: 200.0 mg/kg/injection, schedule: Q04DX002 (ip), vehicle: water) was 188 % of control.

For Cc1[nH]c2ccc(N(C)C)cc2c(=O)c1C, the T/C (dose: 12.5 mg/kg/injection, schedule: Q01DX009 (ip), vehicle: Klucel (hydroxypropylcellulose) (HPC)) was 96 % of control, the T/C (dose: 25.0 mg/kg/injection, schedule: Q01DX009 (ip), vehicle: Klucel (hydroxypropylcellulose) (HPC)) was 104 % of control and 107 % of control and the T/C (dose: 50.0 mg/kg/injection, schedule: Q01DX009 (ip), vehicle: Klucel (hydroxypropylcellulose) (HPC)) was 100 % of control and 103 % of control and 123 % of control. The T/C (dose: 100.0 mg/kg/injection, schedule: Q01DX009 (ip), vehicle: Klucel (hydroxypropylcellulose) (HPC)) was 102 % of control and 103 % of control and 107 % of control and the T/C (dose: 200.0 mg/kg/injection, schedule: Q01DX009 (ip), vehicle: Klucel (hydroxypropylcellulose) (HPC)) was 112 % of control.
